Test results published in patent publication US11718892B2, “Biological ore processing for the isolation of heavy metals” (CyPlus GmbH, priority 2015, dated 2023).

Assays:
Experiment in all cases: Growth on agar plates with different concentrations of AgNO3 or HAuCl4 (resistance assay)
Format in all cases: cell-based
Set-up in all cases: key: x = growth; (x) = weak growth
Bacillus sphaericus = tested on: Bacillus sphaericus
Description: (§1) The growth of several microorganisms (e.g. Escherichia coli, Xanthomonas campestris, Cupriavidus metallidurans and Bacillus sphaericus) was monitored in the presence of the lids with coated pins. Escherichia coli and Xanthomonas campestris served as negative controls with regard to metal binding; Cupriavidus metallidurans as positive control. Additionally, Bacillus sphaericus was used as a positive control for silver binding. For Bacillus sphaericus the binding to gold particles and gold coated surfaces was observed earlier by the inventors. Cupriavidus metallidurans is a gram-negative, rod-shaped bacterium which has gold binding capacity as described in the literature (Reith et al., 2006). The species name metallidurans indicates its resistance to heavy metals and its ability to survive in the presence of gold and silver was investigated previously (Reith F, Rogers S L, McPhail D C and Webb D. (2006) “Biomineralization of gold: biofilms on bacterioform gold.” Science 313(5784): 233-236; Reith F, Etschmann B, Grosse C, Moors H, Benotmane M A, Monsieurs P, Grass G, Doonan C, Vogt S, Lai B, Martinez-Criado G, George G N, Nies D H, Mergeay M, Pring A, Southam G and Brugger J. (2009) “Mechanisms of gold biomineralization in the bacterium Cupriavidus metallidurans.” Proc Natl Acad Sci 106(42):17757-17762; Ledrich ML1, Stemmler S, Laval-Gilly P, Foucaud L, and Falla J (2005) “Precipitation of silver-thiosulfate complex and immobilization of silver by Cupriavidus metallidurans CH34.” Biometals 18(6): 643-650).
(§2) To investigate the tolerated concentration of silver and gold, the microorganisms were propagated in liquid medium and streaked on agar plates with different concentrations of AgNO3 or HAuCl4, respectively.

Escherichia coli = tested on: Escherichia coli
Description: as §1, §2

Xanthomonas campestris = tested on: Xanthomonas campestris
Description: as §1, §2

[1] = tested on: Cupriavidus metallidurans
Description: as §1, §2

Q: Which “Microbial growth dependence on HAuCl4 concentration” value (Bacillus sphaericus; 2 μM HAuCl4, agar plate) does the source give for `[Au+3].[Cl-].[Cl-].[Cl-].[Cl-].[H+]` [HAuCl4] here?
A: x

Q: What about the “Microbial growth dependence on HAuCl4 concentration” value (Bacillus sphaericus; 20 μM HAuCl4, agar plate) of the same compound?
A: x

Q: And the “Microbial growth dependence on HAuCl4 concentration” value (Bacillus sphaericus; 100 μM HAuCl4, agar plate)?
A: x

Q: What about the “Microbial growth dependence on HAuCl4 concentration” value (Bacillus sphaericus; 200 μM HAuCl4, agar plate) of the same compound?
A: x

Q: And the “Microbial growth dependence on HAuCl4 concentration” value (Escherichia coli; 2 μM HAuCl4, agar plate)?
A: x

Q: And the “Microbial growth dependence on HAuCl4 concentration” value (Escherichia coli; 20 μM HAuCl4, agar plate)?
A: x

Q: And the “Microbial growth dependence on HAuCl4 concentration” value (Escherichia coli; 100 μM HAuCl4, agar plate)?
A: x

Q: What about the “Microbial growth dependence on HAuCl4 concentration” value (Escherichia coli; 200 μM HAuCl4, agar plate) of the same compound?
A: x

Q: What about the “Microbial growth dependence on HAuCl4 concentration” value (Escherichia coli; 300 μM HAuCl4, agar plate) of the same compound?
A: x

Q: What about the “Microbial growth dependence on HAuCl4 concentration” value (Xanthomonas campestris; 2 μM HAuCl4, agar plate) of the same compound?
A: x

Q: And the “Microbial growth dependence on HAuCl4 concentration” value (Xanthomonas campestris; 20 μM HAuCl4, agar plate)?
A: x

Q: And the “Microbial growth dependence on HAuCl4 concentration” value (Xanthomonas campestris; 100 μM HAuCl4, agar plate)?
A: x

Q: And the “Microbial growth dependence on HAuCl4 concentration” value (Xanthomonas campestris; 200 μM HAuCl4, agar plate)?
A: x

Q: And the “Microbial growth dependence on HAuCl4 concentration” value (Xanthomonas campestris; 300 μM HAuCl4, agar plate)?
A: x

Q: What about the “Microbial growth dependence on HAuCl4 concentration” value ([1]; 2 μM HAuCl4, agar plate) of the same compound?
A: x

Q: What about the “Microbial growth dependence on HAuCl4 concentration” value ([1]; 20 μM HAuCl4, agar plate) of the same compound?
A: x

Q: And the “Microbial growth dependence on HAuCl4 concentration” value ([1]; 100 μM HAuCl4, agar plate)?
A: x

Q: And the “Microbial growth dependence on HAuCl4 concentration” value ([1]; 200 μM HAuCl4, agar plate)?
A: x

Q: And the “Microbial growth dependence on HAuCl4 concentration” value ([1]; 300 μM HAuCl4, agar plate)?
A: x

Q: What about the “Microbial growth dependence on HAuCl4 concentration” value ([1]; 400 μM HAuCl4, agar plate) of the same compound?
A: x

Q: What about the “Microbial growth dependence on HAuCl4 concentration” value ([1]; 500 μM HAuCl4, agar plate) of the same compound?
A: x

Q: Which results are given for `O=[N+]([O-])[O-].[Ag+]` [AgNO3]?
A: Microbial growth dependence on AgNO3 concentration (Bacillus sphaericus; 2 μM AgNO3, agar plate): x; Microbial growth dependence on AgNO3 concentration (Bacillus sphaericus; 10 μM AgNO3, agar plate): x; Microbial growth dependence on AgNO3 concentration (Bacillus sphaericus; 20 μM AgNO3, agar plate): x; Microbial growth dependence on AgNO3 concentration (Bacillus sphaericus; 50 μM AgNO3, agar plate): x; Microbial growth dependence on AgNO3 concentration (Bacillus sphaericus; 100 μM AgNO3, agar plate): x; Microbial growth dependence on AgNO3 concentration (Bacillus sphaericus; 150 μM AgNO3, agar plate): x; Microbial growth dependence on AgNO3 concentration (Escherichia coli; 2 μM AgNO3, agar plate): x; Microbial growth dependence on AgNO3 concentration (Escherichia coli; 10 μM AgNO3, agar plate): x; Microbial growth dependence on AgNO3 concentration (Escherichia coli; 20 μM AgNO3, agar plate): x; Microbial growth dependence on AgNO3 concentration (Escherichia coli; 50 μM AgNO3, agar plate): x; Microbial growth dependence on AgNO3 concentration (Escherichia coli; 100 μM AgNO3, agar plate): x; Microbial growth dependence on AgNO3 concentration (Xanthomonas campestris; 2 μM AgNO3, agar plate): x; Microbial growth dependence on AgNO3 concentration (Xanthomonas campestris; 10 μM AgNO3, agar plate): x; Microbial growth dependence on AgNO3 concentration (Xanthomonas campestris; 20 μM AgNO3, agar plate): x; Microbial growth dependence on AgNO3 concentration (Xanthomonas campestris; 50 μM AgNO3, agar plate): x; Microbial growth dependence on AgNO3 concentration (Xanthomonas campestris; 100 μM AgNO3, agar plate): x; Microbial growth dependence on AgNO3 concentration ([1]; 2 μM AgNO3, agar plate): x; Microbial growth dependence on AgNO3 concentration ([1]; 10 μM AgNO3, agar plate): x; Microbial growth dependence on AgNO3 concentration ([1]; 20 μM AgNO3, agar plate): x; Microbial growth dependence on AgNO3 concentration ([1]; 50 μM AgNO3, agar plate): x; Microbial growth dependence on AgNO3 concentration ([1]; 100 μM AgNO3, agar plate): x; Microbial growth dependence on AgNO3 concentration ([1]; 150 μM AgNO3, agar plate): x; Microbial growth dependence on AgNO3 concentration ([1]; 200 μM AgNO3, agar plate): (x)
